Reference: patent US9273075B2, “Prodrugs of 1,4-benzodiazepinone compounds” (BRISTOL-MYERS SQUIBB COMPANY, priority 2012, dated 2016)
Values after ≈ are worked out from the molar mass of the structure shown. Like-named read-outs stand apart in the source and are kept apart here. One block for each molecule: values may come before it.

What was measured:
[1] = High Throughput Metabolic Stability Panel, mouse liver microsomes
[2] = High Throughput Metabolic Stability Panel, rat microsomes; details: control compound values (expected ranges), 10 minutes
[3] = High Throughput Metabolic Stability Panel, dog microsomes; details: control compound values (expected ranges), 10 minutes
[4] = High Throughput Metabolic Stability Panel, monkey microsomes; details: control compound values (expected ranges), 10 minutes
[5] = tested on: TALL1 Human T-cell acute lymphoblastic leukemia; test: Human tumor xenograft in mice: TALL1; assay type: in vivo; details: FIG. 1; dosed intravenously QD×3, weekly×3; Compound A 3 mg/kg; Example 12 1.5, 3, 6 mg/kg; active = TGI≧50%
[6] = Thermodynamic Equilibrium Aqueous Solubility Assay; assay type: physicochemical; details: thermodynamic from solid
Method: Standards Preparation: The calibration standard was prepared by accurately weighing 0.5-0.7 mg of sample in 5 ml of methanol. If the material was not fully soluble in methanol, other solvents such as DMSO or mixed solvents were used.
Test Sample Preparation: An excess amount of powder prodrug was equilibrated with 1 mL of buffer (50 mM potassium phosphate, pH 6.5 and 50 mM sodium acetate, pH 4.0) in a 2 mL glass vial. The solution was sonicated and vortexed for ˜30 seconds. The vials were shaken at 300 rpm at room temperature for 24 hrs. The exact incubation time for a specific prodrug was based on the prior aqueous stability data. If the compound was stable in the buffer up to 24 hrs, then the solubility was measured after 24 hrs, otherwise kinetic solubility data was reported. The final saturated solution was then transferred to a 1.5 mL Eppendorf tube and centrifuged for ˜2 min. at 10000 rpms. The supernatant from the saturated solution was transferred to a glass HPLC vial and the solubility was analyzed by HPLC using a four point calibration curve.

Solution Stability Assay = assay type: physicochemical
Method: Acetonitrile Stock Solution: Acetonitrile Stock Solution of the prodrug was prepared by dissolving 1.5-2.0 mg of weighted compound in 5.0 mL of acetonitrile in a 5 mL volumetric flask.
pH 6.5 Buffer Working Solution: A pH 6.5 Buffer Working Solution of drug was prepared by adding 1.5 mL of the Acetonitrile Stock Solution to 3.5 mL of stability buffer (50 mM potassium phosphate, pH 6.5) in a 10 mL vial, and mixing. Using a 3 mL syringe, ˜3 mL of solution was withdrawn and filtered using the Gelman 0.45 μm syringe filter into a clean 1.5 mL LC vial. This filtered solution will was used to evaluate the prodrug degradation throughout the course of the study. Target concentration: 90-120 μg/mL (70% Aqueous: 30% Acetonitrile)
pH 4.0 Acidic Working Solution: A pH 4.0 Working Solution of drug was prepared by adding 1.5 mL of the Acetonitrile Stock Solution to 3.5 mL of stability buffer (50 mM sodium acetate, pH 4.0) in a 10 mL vial and mixing. Using a 3 mL syringe, ˜3 mL of solution was withdrawn and filtered using the Gelman 0.45 μm syringe filter into a clean 1.5 mL LC vial. This filtered solution was used to evaluate the prodrug degradation throughout the course of the study. Target concentration: 90-120 μg/mL (70% Aqueous: 30% Acetonitrile)
Experimental Methods: Following the sample preparation procedure described above a single sample (n=1) was prepared for each pH condition. The samples were then placed in an HPLC autosampler maintained at 37° C. and samples were analyzed over a 24 h period. Prodrug remaining (%) was reported relative to the initial peak area (t=0 h). In cases where a conversion to parent half-life could be calculated, a t1/2 was generated. Confirmation of the conversion to parent from the prodrug was obtained by LCMS and HPLC analysis of the final timepoint samples.
Typical LC parameters are shown below: • HPLC System: HP1100 Series, Hewlett Packard., Heated autosampler • Analytical column: Synergi 4 u Hydro C18, 4.6 mm×5.0 cm, PHENOMENEX® • Column temperature: 40° C. • Autosampler temp: 37° C. • Flow rate: 1.0 mL/min • Injection Volume: 10 μL • Mobile Phase: A: Acetonitrile • B: 0.1% Phosphoric acid in water • Run Time: 14.0 minutes Typical LCMS parameters are shown below: • LC-MS System: Surveyor HPLC system, ThermoFinnigan LCQ Deca XP Max (Ion trap) • Analytical column: Synergi 4 u Hydro C18, 4.6 mm×5.0 cm, PHENOMENEX® • Column temperature: 40° C. • Autosampler temp: 22° C. • Flow rate: 1.0 mL/min • Injection Volume: 5 μL • Mobile Phase: A: 95% Acetonitrile/5% 20 mM Ammonium Acetate • B: 5% Acetonitrile/95% 20 mM Ammonium Acetate LCQ Parameters: • Sheath Flow Rate: 81.64 • Aux/Sweep Flow Rate: 19.01 • Current (uA): 10.89 • Voltage (kV): 5.00 • Capillary (C): 348.10 • Capillary Voltage (V): 30.44

[7] = potassium phosphate buffer, pH 6.5, aqueous buffer, read-out: Solubility (mg/mL) pH 6.5
[8] = sodium acetate buffer, pH 4, aqueous buffer, read-out: Solubility (mg/mL) pH 4.0
[9] = potassium phosphate buffer with 30% acetonitrile, pH 6.5, read-out: Stability (t1/2, h) pH 6.5 (converted)
[10] = sodium acetate buffer with 30% acetonitrile, pH 4, read-out: Stability (t1/2, h) pH 4.0 (converted)

SMILES: NC(=O)[C@@H](CCC(F)(F)F)[C@@H](CCC(F)(F)F)C(=O)N[C@H]1N=C(c2ccccc2)c2ccccc2NC1=O [Compound B, (2R,3S)—N-((3S)-2-Oxo-5-phenyl-2,3-dihydro-1H-1,4-benzodiazepin-3-yl)-2,3-bis(3,3,3-trifluoropropyl)succinamide]
0.5 μM HLM (% Remaining) (0.5 μM compound, human liver microsomes, ten-minute incubation, NADPH): 88%
0.5 μM MsLM (% Remaining) ([1]; 0.5 μM compound, mouse liver microsomes, ten-minute incubation, NADPH): 86%

Average Percent Remaining ± SD, Human (control compound values (expected ranges), human microsomes, 10 minutes): 0.4 ± 0.4%
Average Percent Remaining ± SD, Rat [2]: 0.7 ± 0.6%
Average Percent Remaining ± SD, Dog [3]: 0.4 ± 0.4%
Average Percent Remaining ± SD, Monkey [4]: 0.6 ± 0.5%
Average Percent Remaining ± SD, Mouse ([1]; control compound values (expected ranges), mouse microsomes, 10 minutes): 0.4 ± 0.3%
SMILES: CCc1nn(CCCN2CCN(c3cccc(Cl)c3)CC2)c(=O)n1CCOc1ccccc1 [Nefazodone]

SMILES: CN1C(=O)[C@@H](NC(=O)[C@H](CCC(F)(F)F)[C@H](CCC(F)(F)F)C(=O)NSC[C@H](N)C(=O)O)N=C(c2ccccc2)c2ccccc21 [Example 12, S-(((2S,3R)-6,6,6-Trifluoro-3-(((3S)-1-methyl-2-oxo-5-phenyl-2,3-dihydro-1H-1,4-benzodiazepin-3-yl)carbamoyl)-2-(3,3,3-trifluoropropyl)hexanoyl)amino)-L-cysteine]
in vivo efficacy against TALL1, activity as defined by the tumor growth inhibition (TGI) [5]: active
solubility at 24 h [6, 7]: 0.63 mg/mL (≈ 932 µM)
solubility at 24 h [6, 8]: 0.82 mg/mL (≈ 1210 µM)
half-life (Solution Stability Assay; [9]): 251 h
half-life (Solution Stability Assay; [10]): 376 h

SMILES: CC(C)CNCNC(=O)[C@@H](CCC(F)(F)F)[C@@H](CCC(F)(F)F)C(=O)N[C@H]1N=C(c2ccccc2)c2ccccc2N(C)C1=O [Example 10, (2S,3R)—N-((Isobutylamino)methyl)-N′-((3S)-1-methyl-2-oxo-5-phenyl-2,3-dihydro-1H-1,4-benzodiazepin-3-yl)-2,3-bis(3,3,3-trifluoropropyl)succinamide]
solubility at 24 h [6, 7]: < 0.001 mg/mL
solubility at 24 h [6, 8]: > 0.27 mg/mL
half-life (Solution Stability Assay; [9]): 32 h

SMILES: CN1C(=O)[C@@H](NC(=O)[C@H](CCC(F)(F)F)[C@H](CCC(F)(F)F)C(=O)NCN2CCC(N(C)C)C2)N=C(c2ccccc2)c2ccccc21 (stereo partly drawn) [Example 21, (2S,3R)—N-((3-(Dimethylamino)-1-pyrrolidinyl)methyl)-N′-((3S)-1-methyl-2-oxo-5-phenyl-2,3-dihydro-1H-1,4-benzodiazepin-3-yl)-2,3-bis(3,3,3-trifluoropropyl)succinamide]
solubility at 24 h [6, 7]: 0.63 mg/mL (≈ 923 µM)
solubility at 24 h [6, 8]: 0.64 mg/mL (≈ 937 µM)
half-life (Solution Stability Assay; [9]): 376 h
half-life (Solution Stability Assay; [10]): 334 h

SMILES: CC(C)(N)C(=O)OCN1C(=O)[C@@H](NC(=O)[C@H](CCC(F)(F)F)[C@H](CCC(F)(F)F)C(N)=O)N=C(c2ccccc2)c2ccccc21 [Example 4, ((3S)-3-(((2R,3S)-3-Carbamoyl-6,6,6-trifluoro-2-(3,3,3-trifluoropropyl)hexanoyl)amino)-2-oxo-5-phenyl-2,3-dihydro-1H-1,4-benzodiazepin-1-yl)methyl 2-methylalaninate]
solubility at 24 h [6, 7]: > 1.07 mg/mL
solubility at 24 h [6, 8]: > 3.23 mg/mL
half-life (Solution Stability Assay; [9]): 8 h
half-life (Solution Stability Assay; [10]): 64 h

SMILES: CN1C(=O)[C@@H](NC(=O)[C@H](CCC(F)(F)F)[C@H](CCC(F)(F)F)C(=O)NSCCN)N=C(c2ccccc2)c2ccccc21 [Example 11, (2S,3R)—N-((2-Aminoethyl)sulfanyl)-N′-((3S)-1-methyl-2-oxo-5-phenyl-2,3-dihydro-1H-1,4-benzodiazepin-3-yl)-2,3-bis(3,3,3-trifluoropropyl)succinamide]
solubility at 24 h [6, 7]: > 3.4 mg/mL
solubility at 24 h [6, 8]: > 2.67 mg/mL
half-life (Solution Stability Assay; [9]): 29 h
half-life (Solution Stability Assay; [10]): 215 h

SMILES: NCCSNC(=O)[C@@H](CCC(F)(F)F)[C@@H](CCC(F)(F)F)C(=O)N[C@H]1N=C(c2ccccc2)c2ccccc2NC1=O [Example 8, (2S,3R)—N-((2-Aminoethyl)sulfanyl)-N′-((3S)-2-oxo-5-phenyl-2,3-dihydro-1H-1,4-benzodiazepin-3-yl)-2,3-bis(3,3,3-trifluoropropyl)succinamide]
solubility at 24 h [6, 7]: > 0.47 mg/mL
solubility at 24 h [6, 8]: 0.52 mg/mL (≈ 842 µM)
half-life (Solution Stability Assay; [9]): 334 h
half-life (Solution Stability Assay; [10]): > 500 h

SMILES: NC(=O)[C@@H](CCC(F)(F)F)[C@@H](CCC(F)(F)F)C(=O)N[C@H]1N=C(c2ccccc2)c2ccccc2N(COC(=O)c2ccc(COP(=O)(O)O)cc2)C1=O [Example 2, ((3S)-3-(((2R,3S)-3-Carbamoyl-6,6,6-trifluoro-2-(3,3,3-trifluoropropyl)hexanoyl)amino)-2-oxo-5-phenyl-2,3-dihydro-1H-1,4-benzodiazepin-1-yl)methyl 4-((phosphonooxy)methyl)benzoate]
solubility at 24 h [6, 7]: 0.42 mg/mL (≈ 534 µM)
solubility at 24 h [6, 8]: 0.99 mg/mL (≈ 1260 µM)
half-life (Solution Stability Assay; [9]): > 500 h
half-life (Solution Stability Assay; [10]): > 500 h

SMILES: CN1C(=O)[C@@H](NC(=O)[C@H](CCC(F)(F)F)[C@H](CCC(F)(F)F)C(=O)NCN2CCC(N(C)C)CC2)N=C(c2ccccc2)c2ccccc21 [Example 18, (2S,3R)—N-((4-(Dimethylamino)-1-piperidinyl)methyl)-N′-((3S)-1-methyl-2-oxo-5-phenyl-2,3-dihydro-1H-1,4-benzodiazepin-3-yl)-2,3-bis(3,3,3-trifluoropropyl)succinamide]
solubility at 24 h [6, 7]: > 1.05 mg/mL
solubility at 24 h [6, 8]: 0.29 mg/mL (≈ 416 µM)
half-life (Solution Stability Assay; [9]): > 500 h
half-life (Solution Stability Assay; [10]): > 500 h

SMILES: C[C@H](N)C(=O)OCN1C(=O)[C@@H](NC(=O)[C@H](CCC(F)(F)F)[C@H](CCC(F)(F)F)C(N)=O)N=C(c2ccccc2)c2ccccc21 [Example 5, ((3S)-3-(((2R,3S)-3-Carbamoyl-6,6,6-trifluoro-2-(3,3,3-trifluoropropyl)hexanoyl)amino)-2-oxo-5-phenyl-2,3-dihydro-1H-1,4-benzodiazepin-1-yl)methyl L-alaninate]
solubility at 24 h [6, 7]: 3.2 mg/mL (≈ 4970 µM)
solubility at 24 h [6, 8]: 2.3 mg/mL (≈ 3570 µM)
half-life (Solution Stability Assay; [9]): 5 h
half-life (Solution Stability Assay; [10]): 92 h
